Tests used:
Ad11p hexon protein = assay: FACS analysis of Ad11p hexon protein expression in A549 cells; assay type: cell-based, human adenovirus; settings: 24 h
Description: FIG. 4. A. Binding of ^35S-labelled Ad5 to A549 cells in the presence of A02. Error bars represent the standard deviation of the means from three independent duplicate experiments. B. Flowcytometry assay detecting Ad5 (grey bars) and Ad11 (checkered bars) hexon protein following 24 h incubation with virus and compound A02. Error bars represent the standard deviation of the means from two independent duplicate experiments.
A binding assay using isotope-labeled virions was used to address whether the compound would prevent viral adhesion to host cells. At 15 μM, compound A02 has no effect on Ad5 binding to the surface of A549 cells (FIG. 4A). To further verify inhibition of viral replication, the effect on the expression of the most abundant viral structural protein (hexon) in A549 cells was studied by FACS analysis.

HSV-1 = assay: qPCR of herpes simplex 1 replication in GMK cells; assay type: cell-based, Herpes simplex virus 1; settings: 24 h
Description: Same procedure as for qPCR for adenovirus quantification was followed with the exception of a few steps. Namely, 7×10^4 green monkey kidney (GMK) cells were seeded in 24-well plate the day before infection. Seventy-five virus particles of HSV-1 (stock 1351-95 P13) were added per cell. After 24 h incubation with the compound A02 at 37° C. in 5% CO2, the cells were harvested and DNA was prepared from 200 μL of the total 500 μL well-volume to include the DNA of possible released HSV-1 particles. The primers used in the qPCR assay were; Rune 1 (sense—position 137680-137697 in HSV-1 genome) (5′-GGC CTG GCT ATC CGG AGA-3′—SEQ ID NO:6) and Rune 2 (antisense—position 137742-137726 in HSV-1 genome) (5′-GCG CAG AGA CAT CGC GA-3′—SEQ ID NO:7), the final concentration in the reaction mixture of the primers were 300 nM. As in the adenovirus quantification a FAM-TAMRA labeled probe was used; Rune 3 (5′-CAGCACACGACTTGGCGTTCTGTGT-3′—SEQ ID NO:8) to a final concentration of 175 nM in the reaction mixture.

[1] = tested on: Ad5 binding to A549 cells; assay: Binding of 35S-labelled Ad5 virions to A549 cells; assay type: cell-based, human adenovirus; settings: 15 μM
Description: A549 cells were washed twice and detached from the culture flask with 0.05% EDTA in PBS, resuspended in culture medium, and allowed to recover for 1 h at 37° C. The cell suspension was centrifuged at room temperature at 450 g for 5 min and resuspended in PBS containing 1% FBS and 0.01% NaN3 (PBS-FBS-NaN3); 200,000 cells per well were dispensed in a 96-well microtiter plate (Nunc). The plate was placed on ice and the compound was added to final concentrations of 5 μM and 15 μM. The final concentration of DMSO was less than 1% in all samples. Five pg […] Ad5 virions (with labeling done as described previously by Segerman et al. 2003 (Journal of Virology 77:1157-1162)) were added per cell and the plate was incubated on ice on a rocking platform for 1 h. Following incubation the cells were washed three times with PBS-FBS-NaN3, pelleted by centrifugation at 800 g for 5 min at 4° C. and resuspended in 100 μl PBS. The suspension was transferred to scintillation tubes containing 2 ml scintillation liquid (Wallac OptiPhase HiSafe 3, PerkinElmer) and cell-associated radioactivity was measured as counts per minute (cpm) using a liquid scintillation counter (Wallac 1409).

HIV integrase = HIV integrase (Human immunodeficiency virus type 1 group M subtype B, UniProt P04585); settings: US 2006/0035245; cited from earlier work

Structure (SMILES): O=C(Nc1ccccc1C(=O)Nc1ccccc1C(=O)O)c1ccccc1 [Compound A02, 2-[[2-(Benzoylamino)benzoyl]amino]-benzoic acid]
- expression of Ad11p hexon protein (Ad11p hexon protein): inhibited by compound A02 in a dose-dependent manner
- inhibitory effect on herpes simplex 1 replication (HSV-1): about the same as observed with the representatives of all the six human adenovirus species
- effect on Ad5 binding to the surface of A549 cells [1]: no effect
- inhibition of HIV integrase (HIV integrase): failed to inhibit

— US8993622B2, “Antiviral compounds” (Eirium AB, priority 2010, dated 2015)
